Experimental data from ChEMBL document CHEMBL1201862, “PubChem BioAssay data set” (2004).
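Step 1: Grow cells in 96-well plates. Step 2: Expose to compound for 48 hours at 5 concentrations. Step 3: Interpolate endpoints linearly; if unreached, use highest concentration. GI50: concentration for 50% inhibition of growth.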 The source made the active and inactive calls. No stated cut-off is given here; in the data, active = GI50 up to about 1.1 µM and inactive = higher.

Tests used:
Experiment in all cases: NCI anticancer screen, dose series, 48 h
786-0 = test system: 786-0
BT-549 = test system: BT-549
CAKI-1 = test system: CAKI-1
COLO 205 = test system: COLO 205
DU-145 = test system: DU-145
HOP-62 = test system: HOP-62
HT-29 = test system: HT-29
Hs-578T = test system: Hs-578T
IGROV-1 = test system: IGROV-1
LOX IMVI = test system: LOX IMVI
MOLT-4 = test system: MOLT-4
NCI-H460 = test system: NCI-H460
PC-3 = test system: PC-3
SF-268 = test system: SF-268
SF-295 = test system: SF-295
SF-539 = test system: SF-539
SK-OV-3 = test system: SK-OV-3
SNB-75 = test system: SNB-75
SR = test system: SR
TK-10 = test system: TK-10

Row | Compound | GI50 (786-0) | GI50 (BT-549) | GI50 (CAKI-1) | GI50 (COLO 205) | GI50 (DU-145) | GI50 (HOP-62) | GI50 (HT-29) | GI50 (Hs-578T) | GI50 (IGROV-1) | GI50 (LOX IMVI) | GI50 (MOLT-4) | GI50 (NCI-H460) | GI50 (PC-3) | GI50 (SF-268) | GI50 (SF-295) | GI50 (SF-539) | GI50 (SK-OV-3) | GI50 (SNB-75) | GI50 (SR) | GI50 (TK-10)
1 | C/C(=N/O)c1cccc(Nc2nc3ccc(Cl)cc3c3[nH]c4ccccc4c23)c1 | 1.36 µM (inactive) | 2.93 µM (inactive) | 2.24 µM (inactive) | 1.77 µM (inactive) | 0.261 µM (active) | 2.77 µM (inactive) | 1.23 µM (inactive) | 2.65 µM (inactive) | 1.5 µM (inactive) | 1.91 µM (inactive) | 0.242 µM (active) | 1.14 µM (inactive) | 1.79 µM (inactive) | 1.53 µM (inactive) | 1.41 µM (inactive) | 3.33 µM (inactive) | 3.42 µM (inactive) | < 0.01 µM (active) | 1.24 µM (inactive) | 2.32 µM (inactive)
2 | O=c1c2ccccc2nc(-c2ccccc2)n1/N=C/c1ccccc1[N+](=O)[O-] | 21.9 µM (inactive) | 31.3 µM (inactive) | > 100 µM (inactive) | > 100 µM (inactive) | > 100 µM (inactive) | 13.6 µM (inactive) | > 100 µM (inactive) | 1.59 µM (inactive) | > 69.7 µM (inactive) | > 100 µM (inactive) | > 100 µM (inactive) | > 91.2 µM (inactive) | > 100 µM (inactive) | 16.3 µM (inactive) | 22.8 µM (inactive) | 19.9 µM (inactive) | 19.6 µM (inactive) | 7.41 µM (inactive) | > 100 µM (inactive) | 28.3 µM (inactive)
3 | CCN(CC)C1Oc2cc3c(cc2C(c2cc(OC)c(O)c(OC)c2)C1C)OCO3 (stereo not given) | 10.4 µM (inactive) | 6.95 µM (inactive) | 12.5 µM (inactive) | 15.5 µM (inactive) | 29.9 µM (inactive) | 10.1 µM (inactive) | 7.31 µM (inactive) | 6.84 µM (inactive) | 9.98 µM (inactive) | 9.66 µM (inactive) | 6.08 µM (inactive) | 6.18 µM (inactive) | 14.4 µM (inactive) | 16.3 µM (inactive) | 5.22 µM (inactive) | 11.3 µM (inactive) | 9.18 µM (inactive) | 3.48 µM (inactive) | 4.57 µM (inactive) | 24.9 µM (inactive)
4 | C#CCn1c(I)cc2c(c1=O)COC(=O)[C@]2(O)CC | > 100 µM (inactive) | > 100 µM (inactive) | > 100 µM (inactive) | > 100 µM (inactive) | > 100 µM (inactive) | > 100 µM (inactive) | > 100 µM (inactive) | > 100 µM (inactive) | > 100 µM (inactive) | > 100 µM (inactive) | > 100 µM (inactive) | > 100 µM (inactive) | > 100 µM (inactive) | > 100 µM (inactive) | > 100 µM (inactive) | > 100 µM (inactive) | > 100 µM (inactive) | > 100 µM (inactive) | > 100 µM (inactive) | > 100 µM (inactive)
